This is an account of results in ChEMBL document CHEMBL6092168, “Identification of novel indolinone derivatives as CTSC inhibitors to treat inflammatory bowel disease by modulating inflammatory factors” (Eur J Med Chem, 2024).

Calls of active or inactive are those of the source. No cut-off for these calls is given here.

The target in data set [1] is T1, Myeloblastin (Mus musculus) (UniProt Q61096).
T1 sequence (whole entry): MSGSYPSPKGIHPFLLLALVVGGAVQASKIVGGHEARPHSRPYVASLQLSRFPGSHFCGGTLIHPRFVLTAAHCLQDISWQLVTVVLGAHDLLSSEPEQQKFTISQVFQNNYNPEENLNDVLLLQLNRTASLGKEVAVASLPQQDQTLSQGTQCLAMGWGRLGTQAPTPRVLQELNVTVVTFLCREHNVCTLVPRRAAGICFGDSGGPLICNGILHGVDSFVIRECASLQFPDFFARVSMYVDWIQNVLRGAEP
The data set is described as follows: Induction of proteinase 3 degradation in C57BL/6 mouse bone marrow cells assessed as remaining activity at 10 uM incubated for 12 hrs by Western blot analysis relative to control. The format is cell-based. Particulars: Bone marrow cell. Background: In western blotting, separated proteins are transferred to a membrane and probed.

For data set [2], the target named is T2, Neutrophil elastase (Homo sapiens) (UniProt P08246).
T2 sequence (whole entry): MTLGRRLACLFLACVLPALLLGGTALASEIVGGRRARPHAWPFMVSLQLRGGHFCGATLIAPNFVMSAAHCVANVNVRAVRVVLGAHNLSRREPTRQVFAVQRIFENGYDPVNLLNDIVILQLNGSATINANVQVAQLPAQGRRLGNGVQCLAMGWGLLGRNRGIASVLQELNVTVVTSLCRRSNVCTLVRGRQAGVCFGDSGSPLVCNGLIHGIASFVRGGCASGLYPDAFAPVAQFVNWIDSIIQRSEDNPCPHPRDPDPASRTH
The data set is described as follows: Inhibition of neutrophil elastase in human U-937 cells using N-MeSuc-Ala-Pro-Val-pNA as substrate at 10 uM incubated for 5 days by […] based microplate reader analysis relative to control. In kind it is cell-based. Particulars: time 5.0 day.

A further data set addresses Dipeptidyl peptidase 1 (Homo sapiens, UniProt P53634). The data set is described as follows: Inhibition of Cathepsin C in human U-937 cells using H-Gly-Arg-AMC as substrate at 10 uM incubated for 5 days by fluorescence based microplate reader analysis relative to control. The format is cell-based. As to conditions: time 5.0 day.
In data set [3] the test system is Mus musculus. Briefly: Anti-inflammatory activity in DSS-induced ulcerative colitis male C57BL/6 mouse model assessed as reduction in inflammatory cell infiltration in colon at 60 mg/kg administered via gavage for 10 days by H and E staining based analysis. The format is functional, organism-based. Particulars: time 10.0 day.
Data set [4] relates to Mus musculus. Briefly: Anti-inflammatory activity in DSS-induced ulcerative colitis male C57BL/6 mouse model assessed as reduction in proteinase 3 level in colon at 15 to 30 mg/kg administered via gavage for 10 days. In kind it is functional, organism-based. Particulars: dose 15-30 mg/kg, time 10.0 day.
Data set [5] is described as follows: Acute toxicity in ICR mouse assessed as change in white blood cell count in blood at 1500 mg/kg, po administered daily for 7 days. The format is organism-based. Particulars: in vivo, 168 h, time 7 day.
The test system of data set [6] is RAW264.7. The data set is described as follows: Anti-inflammatory activity in LPS-stimulated mouse RAW264.7 cells assessed as reduction in IL-1 beta production incubated for 24 hrs by ELISA. The format is functional, cell-based. As to conditions: dose 0.62-5 µM. (An ELISA detects its analyte on a solid surface through an enzyme-linked reagent.)
The subject of data set [7] is Mus musculus. The data set is described as follows: Anti-inflammatory activity in DSS-induced ulcerative colitis male C57BL/6 mouse model assessed as reduction in Cathepsin C level in serum at 15 to 30 mg/kg administered via gavage for 10 days. The format is functional, organism-based. As to conditions: dose 15-30 mg/kg, time 10.0 day.
Data set [8] has as its system Mus musculus. Briefly: Anti-inflammatory activity in DSS-induced ulcerative colitis male C57BL/6 mouse model assessed as increase in colon length administered via gavage for 10 days. In kind it is functional, organism-based. As to conditions: dose 15-60 mg/kg, time 10.0 day.
The target of data set [9] is T1, Myeloblastin (Mus musculus). Briefly: In vivo inhibition of proteinase 3 in C57BL/6 mouse assessed as reduction in proteinase 3 activity in bone marrow at 30 mg/kg, po administered once daily for 6 days by fluorescence based microplate reader relative to control. The format is functional, organism-based. Particulars: time 6.0 day.
For data set [10] the target is unchanged. Briefly: Induction of proteinase 3 degradation in C57BL/6 mouse bone marrow cells at 10 uM incubated for 24 hrs by Western blot analysis. In kind it is cell-based. As to conditions: Bone marrow cell.
Data set [11] deals with T3, Dipeptidyl peptidase 1 (Mus musculus) (UniProt P97821).
T3 sequence (whole entry): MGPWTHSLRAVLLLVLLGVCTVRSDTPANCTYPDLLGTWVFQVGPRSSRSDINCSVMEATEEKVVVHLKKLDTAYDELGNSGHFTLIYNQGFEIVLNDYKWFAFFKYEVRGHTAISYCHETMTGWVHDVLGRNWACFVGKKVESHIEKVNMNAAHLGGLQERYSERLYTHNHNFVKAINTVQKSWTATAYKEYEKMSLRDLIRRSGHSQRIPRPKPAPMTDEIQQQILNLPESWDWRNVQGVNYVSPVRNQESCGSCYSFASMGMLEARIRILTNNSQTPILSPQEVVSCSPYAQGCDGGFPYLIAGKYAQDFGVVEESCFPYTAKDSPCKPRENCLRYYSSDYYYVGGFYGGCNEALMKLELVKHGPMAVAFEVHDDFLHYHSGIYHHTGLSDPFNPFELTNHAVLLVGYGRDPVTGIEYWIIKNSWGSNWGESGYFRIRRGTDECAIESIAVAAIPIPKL
Briefly: In vivo inhibition of Cathepsin C in C57BL/6 mouse assessed as reduction in cathepsin C activity in bone marrow administered orally once daily for 6 days by fluorescence based microplate reader. The format is functional, organism-based. As to conditions: dose 5-30 mg/kg, route po, time 6.0 day.

Data set [12] has as its target T4, Cathepsin G (Mus musculus) (UniProt P28293).
T4 sequence (whole entry): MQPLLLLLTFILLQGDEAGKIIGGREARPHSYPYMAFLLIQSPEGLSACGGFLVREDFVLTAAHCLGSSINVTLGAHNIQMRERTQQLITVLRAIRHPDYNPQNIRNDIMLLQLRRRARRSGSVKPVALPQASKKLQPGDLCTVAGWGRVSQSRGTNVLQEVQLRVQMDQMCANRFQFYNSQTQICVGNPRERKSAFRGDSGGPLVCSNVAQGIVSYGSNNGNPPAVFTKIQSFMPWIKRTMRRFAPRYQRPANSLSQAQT
Briefly: Induction of Cathepsin G degradation in C57BL/6 mouse bone marrow cells assessed as residual activity at 10 uM incubated for 48 hrs by Western blot analysis relative to control. In kind it is cell-based. Particulars: Bone marrow cell.

Data set [13] has as its system RAW264.7. Briefly: Anti-inflammatory activity in mouse RAW264.7 cells assessed as inhibition of LPS-induced IL-1beta production at 5 uM preincubated for 1 hr followed by LPS addition and measured after 24 hrs by ELISA relative to control. In kind it is functional. Details: scale not given: the % may be the effect or the level left. As to conditions: time 25 hrs.
Data set [14] deals with Mus musculus. Briefly: Anti-inflammatory activity in DSS-induced ulcerative colitis C57BL/6 mouse model assessed as effect on inflammatory factors at 60 mg/kg, administered twice daily. The format is functional, organism-based.
The subject of data set [15] is Mus musculus. Briefly: Anti-inflammatory activity in DSS-induced ulcerative colitis male C57BL/6 mouse model assessed as reduction in Cathepsin C level in colon at 15 to 30 mg/kg administered via gavage for 10 days. As to conditions: dose 15-30 mg/kg, time 10.0 day. The format is functional, organism-based.
Data set [16] relates to Mus musculus. The data set is described as follows: Anti-inflammatory activity in DSS-induced ulcerative colitis male C57BL/6 mouse model assessed as reduction in disease activity index (DAI) score at 60 mg/kg administered via gavage for 10 days. The format is functional, organism-based. Particulars: time 10.0 day.
Data set [17] relates to Mus musculus. The data set is described as follows: Anti-inflammatory activity in DSS-induced ulcerative colitis male C57BL/6 mouse model assessed as increase in IL-10 expression in serum administered via gavage for 10 days by ELISA. As to conditions: dose 15-60 mg/kg, time 10.0 day. The format is functional, organism-based.
Data set [18] relates to Mus musculus. Briefly: Anti-inflammatory activity in DSS-induced ulcerative colitis male C57BL/6 mouse model assessed as reduction in cathepsin G level in serum at 15 to 30 mg/kg administered via gavage for 10 days. In kind it is functional, organism-based. As to conditions: dose 15-30 mg/kg, time 10.0 day.

Dipeptidyl peptidase 1, sequence (P53634 25-134 limits assumed): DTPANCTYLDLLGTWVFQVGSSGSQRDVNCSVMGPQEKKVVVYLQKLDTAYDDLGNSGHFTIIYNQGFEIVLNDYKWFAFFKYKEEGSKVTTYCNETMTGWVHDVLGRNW
Dipeptidyl peptidase 1, sequence (P53634 231-394 limits assumed): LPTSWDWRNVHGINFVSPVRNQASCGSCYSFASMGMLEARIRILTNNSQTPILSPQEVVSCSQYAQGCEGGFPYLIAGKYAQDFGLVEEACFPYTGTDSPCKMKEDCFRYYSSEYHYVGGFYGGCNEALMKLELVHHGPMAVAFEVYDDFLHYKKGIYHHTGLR
Dipeptidyl peptidase 1, sequence (P53634 395-463 limits assumed): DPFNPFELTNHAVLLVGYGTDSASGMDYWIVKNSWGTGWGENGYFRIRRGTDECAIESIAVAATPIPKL

As for `O=C1Nc2c(cccc2-c2ccc(NC3CCOCC3)cc2)/C1=C/c1ccnc2ccccc12`, the Activity in data set [1] was 75%; in data set [5], “Non-toxic”; in the data set on RAW264.7 [6] it was “Dose-dependent-effect”; in the data set with Mus musculus [8], “Dose-dependent-effect”; in [12], 17.3%; with RAW264.7 [13] it was 90.5%. Also, the Activity entry with Mus musculus [17] is listed as “Dose-dependent-effect; Significant Increase Observed In High Dose Group”. Further, the inhibition in data set [2] is 24.5%; against Dipeptidyl peptidase 1, 14.9%; in [9], 58.6%; in [11], “Dose-dependent-effect”. Also, the result (in the data set on Mus musculus [3]; in [10]; in the data set on Mus musculus [14]; with Mus musculus [16]) was Active. Further, the result with Mus musculus [4], with Mus musculus [7], in the data set with Mus musculus [15] and in the data set on Mus musculus [18] was inactive.

The term inhibition denotes how much of the control response was suppressed.
